US10336732B2, “1-heterocyclyl isochromanyl compounds and analogs for treating CNS disorders” (Sunovion Pharmaceuticals Inc., priority 2015, dated 2019)

These compounds were tested against T1, 5-HT2C (Homo sapiens, UniProt P28335) (assay: In vitro radioligand binding assay, 5-HT2C, [3H]mesulergine). Conditions: human recombinant (HEK-293 cells).
T1 construct: expressed in transfected cells; host or cells: HEK-293 cells
T1 sequence (P28335 33-458): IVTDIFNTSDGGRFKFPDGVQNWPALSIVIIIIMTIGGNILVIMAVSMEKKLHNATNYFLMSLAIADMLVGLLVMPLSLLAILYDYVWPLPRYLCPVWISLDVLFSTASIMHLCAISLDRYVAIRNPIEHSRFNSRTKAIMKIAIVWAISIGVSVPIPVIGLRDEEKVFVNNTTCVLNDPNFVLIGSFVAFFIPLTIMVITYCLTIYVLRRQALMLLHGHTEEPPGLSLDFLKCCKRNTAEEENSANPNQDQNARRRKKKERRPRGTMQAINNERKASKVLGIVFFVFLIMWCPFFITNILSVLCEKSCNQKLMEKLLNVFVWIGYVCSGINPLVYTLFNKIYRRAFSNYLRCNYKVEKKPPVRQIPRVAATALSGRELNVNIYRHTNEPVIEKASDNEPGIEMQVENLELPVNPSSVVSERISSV
Set-up: concentration or dose not given beside the values
Experimental: Certain compounds were tested by in vitro binding assays using standard procedures. […] These receptors and assays are well known to those skilled in the art, as exemplified by the following: Abramovitz, M. et al. (2000), Biochem. Biophys. Acta., 1483: 285-293 (EP4, IP (PGI2)); Aharony, D. et al. (1993), Mol. Pharmacol., 44: 356-363 (NK2); Ardati, A. et al. (1997), Mol. Pharmacol., 51: 816-824 (NOP (ORL1)); Bignon, E. et al. (1999), J. Pharmacol. Exp. Ther. 289: 742-751 (CCK1 (CCKA)); Bloomquist, B. T. et al. (1998), Biochem. Biophys. Res. Commun., 243: 474-479 (GAL2); Brockhaus, M. et al. (1990), Proc. Natl. Acad. Sci. U.S.A., 87: 3127-3131 (TNF-α); Brown, G. B. (1986), J. Neurosci., 6: 2064-2070 (Na+ channel (site 2)); Buchan, K. W. et al. (1994), Brit. J. Pharmacol., 112: 1251-1257 (ETA); Cesura, A. M. et al. (1990), Mol. Pharmacol., 37: 358-366 (MAO-A); Choi, D. S. et al. (1994), FEBS Lett., 352: 393-399 (5-HT2B); Clark, A. F. et al. (1996), Invest. Ophtalmol. Vis. Sci., 37: 805-813 (GR); Couvineau, A. et al. (1985), Biochem. J., 231: 139-143 (VPAC1 (VIP1)); Dorje, F. et al. (1991), J. Pharmacol. Exp. Ther., 256: 727-733 (M1, M2, M3, M4); Ferry, G. et al. (2001), Eur. J. Pharmacol., 417: 77-89 (PPARγ); Fuchs, S. et al. (2001), Mol. Med., 7: 115-124 (ETB); Fuhlendorff, J. et al. (1990), Proc. Natl. Acad. Sci. U.S.A., 87: 182-186 (Y2); Ganapathy M E. et al. (1999), J. Pharmacol. Exp. Ther., 289: 251-260 (sigma (non-selective)); Gopalakrishnan, M. et al. (1996), J. Pharmacol. Exp. Ther., 276: 289-297 (N neuronal α4β2); Greengrass, P. and Bremner, R. (1979), Eur. J. Pharmacol., 55: 323-326 (α1 (non-selective)); Grandy, D. K. et al. (1989), Proc. Natl. Acad. Sci. U.S.A., 86: 9762-9766 (D25); Guard, S. et al. (1993), Eur. J. Pharmacol., 240:177-184 (BB (non-selective)); Heuillet, E. et al. (1993), J. Neurochem., 60: 868-876 (NK1, P2X); Hope, A. G. et al. (1996), Brit. J. Pharmacol., 118: 1237-1245 (5-HT3); Hoyer, D. et al. (1985), Eur. J. Pharmacol., 118: 1-12 (5-HT1B); Hugues, M. et al. (1982), J. Biol. Chem., 257: 2762-2769 (5-HT2A, SKCa channel); Joseph, S. S. et al. (2004), Naun.-Sch. Arch. Pharm., 369: 525-532 (β2); Le, M. T. et al. (2005), Eur. J. Pharmacol., 513: 35-45 (AT1); Le Fur, G. et al. (1983), Life Sci., 33: 449-457) (BZD (peripheral); Lee, Y. M. et al. (1993), J. Biol. Chem., 268: 8164-8169 (CCK2 (CCKB)); Leurs, R. et al. (1994), Brit. J. Pharmacol., 112: 847-854 (H2); Levin, M. C. et al. (2002), J. Biol. Chem., 277: 30429-30435 (11); Lewin, A. H. et al. (1989), Mol. Pharmacol., 35: 189-194 (Cl− channel (GABA-gated)); Lukas, R. J. (1986), J. Neurochem., 46: 1936-1941 (N muscle-type); Luthin, D. R. et al. (1995), Mol. Pharmacol., 47: 307-313; (A2A); Mackenzie, R. G. et al. (1994), Eur. J. Pharmacol., 266: 79-85 (D3); Mulheron, J. G. et al. (1994), J. Biol. Chem., 269: 12954-12962 (5-HT1A); Meng, F. et al. (1993), Proc. Natl. Acad. Sci. U.S.A., 90: 9954-9958 (κ (KOP)); Monsma, F. J. et al. (1993), Mol. Pharmacol., 43: 320-327 (5-HT6); Neote, K. et al. (1993), Cell, 72: 415-425 (CCR1); Pacholczyk, T. et al. (1991), Nature, 350: 350-354 (sst (non-selective, norepinephrine transporter)); Peralta, E. G. et al. (1987), Embo. J., 6: 3923-3929 (M3); Pristupa, Z. B. et al. (1994), Mol. Pharmacol., 45: 125-135 (dopamine transporter); Pruneau, D. et al. (1998), Brit. […]
`Clc1ccc2c(c1)[C@H]([C@@H]1CCCN1)OCC2` [Compound I-29, (S)-2-((R)-7-chloroisochroman-1-yl)pyrrolidine] was tested, and the “5HT2c percent inhibition of specific binding” value (from here on “5HT2c percent inhibition”) was 67%.
For `Fc1ccc2c(c1)CCO[C@H]2[C@@H]1CCN1` [Compound I-90, (S)-2-((R)-6-fluoroisochroman-1-yl)azetidine], the “5HT2c percent inhibition” value was 59%.
`Fc1cccc2c1[C@H]([C@@H]1CCCN1)OCC2` [Compound I-1, (S)-2-((R)-8-fluoroisochroman-1-yl)pyrrolidine] was tested, and the “5HT2c percent inhibition” value was 63%.
In the case of `Fc1ccc2c(c1)CCO[C@H]2[C@@H]1CCCN1` [Compound I-9, (S)-2-((R)-6-fluoroisochroman-1-yl)pyrrolidine], the “5HT2c percent inhibition” value was 61%.
For `Fc1cccc2c1[C@H]([C@@H]1CCN1)OCC2` [Compound I-83, (S)-2-((R)-8-fluoroisochroman-1-yl)azetidine], the “5HT2c percent inhibition” value was 64%.
